Results from PubChem BioAssay AID248 (DTP/NCI, 2004).
Where “and” joins values, the source holds several entries; their conditions need not be identical. Equal entries are not always repeated. Inconclusive results and toxic doses are left out. Rule as the data show it: active = T/C of 150% or more; inactive = T/C below 125%.

Test system: L1210 leukemia ip in BDF1 mice, survival T/C
Assay: NCI In Vivo Anticancer Drug Screen. Data for tumor model L1210 Leukemia (intraperitoneal) in B6D2F1 (BDF1) mice
Settings: endpoint: mean survival time, higher = longer survival
How it was run: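 Value reflects the ratio of survival in compound-treated mice to survival in vehicle-treated controls, with both groups carrying the same transplanted tumor.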

[1] = dose: 15.0 mg/kg/injection, schedule: Q01DX Z (ip), vehicle: carboxymethylcellulose (CMC)
[2] = dose: 30.0 mg/kg/injection, schedule: Q01DX Z (ip), vehicle: carboxymethylcellulose (CMC)
[3] = dose: 60.0 mg/kg/injection, schedule: Q01DX Z (ip), vehicle: carboxymethylcellulose (CMC)
[4] = dose: 120.0 mg/kg/injection, schedule: Q01DX Z (ip), vehicle: carboxymethylcellulose (CMC)
[5] = dose: 100.0 mg/kg/injection, schedule: Q04DX003 (ip), vehicle: Klucel (hydroxypropylcellulose) (HPC)
[6] = dose: 200.0 mg/kg/injection, schedule: Q04DX003 (ip), vehicle: Klucel (hydroxypropylcellulose) (HPC)
[7] = dose: 400.0 mg/kg/injection, schedule: Q04DX003 (ip), vehicle: Klucel (hydroxypropylcellulose) (HPC)

Measured: T/C

COc1cc2c(c(OC)c1OC)-c1ccc(OC)c(=O)cc1[C@@H](NC(=O)CF)CC2
inactive: dose: 0.04 mg/kg/injection, schedule: Q01DX009 (ip), vehicle: saline 113 % of control | dose: 0.06 mg/kg/injection, schedule: Q04DX002 (ip), vehicle: saline with Tween-80 101 % of control | dose: 0.09 mg/kg/injection, schedule: Q01DX001 (ip), vehicle: saline with Tween-80 116 % of control | dose: 0.09 mg/kg/injection, schedule: Q01DX009 (ip), vehicle: saline with Tween-80 122 % of control | dose: 0.09 mg/kg/injection, schedule: Q01DX009 (ip), vehicle: saline 118 % of control | dose: 0.09 mg/kg/injection, schedule: Q04DX003 (ip), vehicle: saline with Tween-80 108 % of control | dose: 0.12 mg/kg/injection, schedule: Q04DX002 (ip), vehicle: saline with Tween-80 104 % of control | dose: 0.18 mg/kg/injection, schedule: Q01DX001 (ip), vehicle: saline with Tween-80 119 % of control | dose: 0.18 mg/kg/injection, schedule: Q04DX003 (ip), vehicle: saline with Tween-80 113 % of control | dose: 0.25 mg/kg/injection, schedule: Q04DX002 (ip), vehicle: saline with Tween-80 117 % of control | dose: 0.37 mg/kg/injection, schedule: Q01DX001 (ip), vehicle: saline with Tween-80 114 % of control | dose: 0.37 mg/kg/injection, schedule: Q01DX009 (ip), vehicle: saline with Tween-80 100 % of control | dose: 0.37 mg/kg/injection, schedule: Q04DX003 (ip), vehicle: saline with Tween-80 118 % of control | dose: 0.5 mg/kg/injection, schedule: Q04DX002 (ip), vehicle: saline with Tween-80 121 % of control | dose: 0.75 mg/kg/injection, schedule: Q01DX001 (ip), vehicle: saline with Tween-80 121 % of control | dose: 0.75 mg/kg/injection, schedule: Q04DX003 (ip), vehicle: saline with Tween-80 116 % of control | dose: 1.5 mg/kg/injection, schedule: Q04DX002 (ip), vehicle: saline with Tween-80 113 % of control | dose: 2.0 micrograms/kg/injection, schedule: Q01DX009 (ip), vehicle: saline with Tween-80 97 % of control | dose: 5.0 micrograms/kg/injection, schedule: Q01DX009 (ip), vehicle: saline with Tween-80 105 % of control | dose: 10.0 micrograms/kg/injection, schedule: Q01DX009 (ip), vehicle: saline with Tween-80 89 % of control

C=CCOc1cc2c(ccc1=O)-c1c(cc(OC)c(OC)c1OC)CCC2NC(C)=O (stereo unspecified)
inactive: dose: 100.0 mg/kg/injection, schedule: Q01DX001 (ip), vehicle: carboxymethylcellulose (CMC) 104 % of control | dose: 200.0 mg/kg/injection, schedule: Q01DX001 (ip), vehicle: carboxymethylcellulose (CMC) 106 % of control | dose: 400.0 mg/kg/injection, schedule: Q01DX001 (ip), vehicle: carboxymethylcellulose (CMC) 104 % of control

CN(C)/C=C1/C=Cc2ccccc21
inactive: dose: 100.0 mg/kg/injection, schedule: Q01DX009 (ip), vehicle: saline 98 % of control | dose: 200.0 mg/kg/injection, schedule: Q01DX009 (ip), vehicle: saline 101 % of control | dose: 400.0 mg/kg/injection, schedule: Q01DX009 (ip), vehicle: saline 97 % of control

CC(=NCc1ccccc1)Nc1ccc(NC(=O)c2ccc(C(=O)Nc3ccc(NC(C)=NCc4ccccc4)cc3)cc2)cc1
inactive: [1] 92 % of control | [2] 103 % of control | [3] 95 % of control | [4] 97 % of control

Cc1ccc2c(ccc3ccc4ccccc4c32)c1
inactive: [5] 90 % of control | [6] 89 % of control | [7] 93 % of control

Cc1ccc(OCCC(=O)O)cc1
inactive: dose: 100.0 mg/kg/injection, schedule: Q04DX002 (ip), vehicle: saline 108 % of control | dose: 200.0 mg/kg/injection, schedule: Q04DX002 (ip), vehicle: saline 101 % of control | dose: 400.0 mg/kg/injection, schedule: Q04DX002 (ip), vehicle: saline 108 % of control

CCOC(=O)C1CSCN1 (stereo unspecified)
inactive: dose: 100.0 mg/kg/injection, schedule: Q04DX003 (ip), vehicle: saline 104 % of control | dose: 200.0 mg/kg/injection, schedule: Q04DX003 (ip), vehicle: saline 89 % of control

CC1=COC2CCCCC2O1 (stereo unspecified) (tested in a mixture with another compound)
inactive: dose: 50.0 mg/kg/injection, schedule: Q01DX009 (ip), vehicle: acetone 92 % of control | dose: 100.0 mg/kg/injection, schedule: Q01DX009 (ip), vehicle: acetone 95 % of control | dose: 100.0 mg/kg/injection, schedule: Q04DX003 (ip), vehicle: acetone 103 % of control and 94 % of control | dose: 200.0 mg/kg/injection, schedule: Q04DX003 (ip), vehicle: acetone 104 % of control and 96 % of control and 100 % of control | dose: 400.0 mg/kg/injection, schedule: Q04DX003 (ip), vehicle: acetone 96 % of control and 89 % of control

CCOC(=O)C(NC(=O)NC)C(=O)OCC
inactive: dose: 100.0 mg/kg/injection, schedule: Q01DX009 (ip), vehicle: Klucel (hydroxypropylcellulose) (HPC) 98 % of control | [5] 102 % of control | dose: 200.0 mg/kg/injection, schedule: Q01DX009 (ip), vehicle: Klucel (hydroxypropylcellulose) (HPC) 93 % of control | [6] 98 % of control | dose: 400.0 mg/kg/injection, schedule: Q01DX009 (ip), vehicle: Klucel (hydroxypropylcellulose) (HPC) 102 % of control | [7] 96 % of control

CCCCCCCCCCCCCCCCCCNC(=O)Nc1ccc([N+](=O)[O-])cc1Br
inactive: dose: 100.0 mg/kg/injection, schedule: Q04DX002 (ip), vehicle: Klucel (hydroxypropylcellulose) (HPC) 97 % of control | dose: 200.0 mg/kg/injection, schedule: Q04DX002 (ip), vehicle: Klucel (hydroxypropylcellulose) (HPC) 97 % of control | dose: 400.0 mg/kg/injection, schedule: Q04DX002 (ip), vehicle: Klucel (hydroxypropylcellulose) (HPC) 90 % of control

O=[N+]([O-])c1cccc(S(=O)(=O)NNc2cccc(Cl)c2)c1
inactive: [5] 94 % of control | [6] 94 % of control | [7] 98 % of control

CC(C)c1ccc(/C(=N\N=C(N)N)C2CC2)cc1
inactive: [1] 93 % of control | [2] 95 % of control | [3] 92 % of control and 93 % of control | [4] 95 % of control and 96 % of control | dose: 120.0 mg/kg/injection, schedule: Q01DX Z (oral), vehicle: carboxymethylcellulose (CMC) 101 % of control | dose: 240.0 mg/kg/injection, schedule: Q01DX Z (ip), vehicle: carboxymethylcellulose (CMC) 93 % of control | dose: 240.0 mg/kg/injection, schedule: Q01DX Z (oral), vehicle: carboxymethylcellulose (CMC) 110 % of control | dose: 480.0 mg/kg/injection, schedule: Q01DX Z (oral), vehicle: carboxymethylcellulose (CMC) 102 % of control | dose: 960.0 mg/kg/injection, schedule: Q01DX Z (oral), vehicle: carboxymethylcellulose (CMC) 102 % of control

CCOC(=O)Cn1c2ccccc2c2cc3c(C)nccc3c(C)c21
inactive: dose: 4.69 mg/kg/injection, schedule: Q01DX009 (ip), vehicle: saline with Tween-80 93 % of control | dose: 9.37 mg/kg/injection, schedule: Q01DX009 (ip), vehicle: saline with Tween-80 96 % of control | dose: 9.37 mg/kg/injection, schedule: Q04DX003 (ip), vehicle: saline with Tween-80 96 % of control | dose: 18.75 mg/kg/injection, schedule: Q01DX009 (ip), vehicle: saline with Tween-80 95 % of control | dose: 18.75 mg/kg/injection, schedule: Q04DX003 (ip), vehicle: saline with Tween-80 105 % of control | dose: 37.5 mg/kg/injection, schedule: Q01DX009 (ip), vehicle: saline with Tween-80 95 % of control | dose: 37.5 mg/kg/injection, schedule: Q04DX003 (ip), vehicle: saline with Tween-80 96 % of control | dose: 75.0 mg/kg/injection, schedule: Q01DX009 (ip), vehicle: saline with Tween-80 103 % of control | dose: 75.0 mg/kg/injection, schedule: Q04DX003 (ip), vehicle: saline with Tween-80 105 % of control | dose: 150.0 mg/kg/injection, schedule: Q01DX009 (ip), vehicle: saline with Tween-80 97 % of control | dose: 150.0 mg/kg/injection, schedule: Q04DX003 (ip), vehicle: saline with Tween-80 113 % of control

CC1CC(C)(C)N=C(c2cccc(Br)c2)O1 (stereo unspecified)
inactive: dose: 100.0 mg/kg/injection, schedule: Q01DX009 (ip), vehicle: saline with Tween-80 103 % of control | dose: 200.0 mg/kg/injection, schedule: Q01DX009 (ip), vehicle: saline with Tween-80 103 % of control | dose: 400.0 mg/kg/injection, schedule: Q01DX009 (ip), vehicle: saline with Tween-80 92 % of control

CC(C)CCCC(C)C1CCC2C3CC=C4CC([S+](C)C)CCC4(C)C3CCC12C (stereo unspecified)
inactive: dose: 25.0 mg/kg/injection, schedule: Q01DX009 (ip), vehicle: saline 96 % of control | dose: 50.0 mg/kg/injection, schedule: Q01DX009 (ip), vehicle: saline 96 % of control | dose: 100.0 mg/kg/injection, schedule: Q04DX003 (ip), vehicle: alcohol 98 % of control
